Laboratory results reported in patent publication US12516022B2, “Derivatives of aryl hydrocarbon receptor agonists” (AZORA THERAPEUTICS, INC., priority 2021, dated 2026).

How the values were obtained:
[1] = tested on: dextran sodium sulfate (DSS)-induced acute colitis; assay: DSS-induced acute colitis mouse model, exemplary compounds (Example 7); format: in vivo; settings: mice, oral gavage twice daily for 9 days, indirubin molar equivalent of 15 mg/kg
Method: Eight week old female C57 BL/6J mice, around 20 g body weight purchased from Charles River Laboratories were bred in specific pathogen free IVC cages (4 mice in each cage) in a temperature controlled (20±2° C.) room with a 12 hour light-dark cycle. Chow pellets and tap water were available ad libitum. All experimental protocols were approved by the Institutional Animal Care and Use Committee. The mice were acclimated at the animal facility for at least of three days before the experiments. To generate dextran sodium sulfate (DSS)-induced acute colitis, the mice were induced with 3% DSS (molecular weight 36,000-50,000; […] DSS solution was freshly prepared and changed daily. These mice were euthanized on day 8 (9th day of the experiment). Body weight and disease activity index (DAI) soring were recorded daily to assess the colitis. DAI score was the sum of the weight loss score, stool score and bleeding subscores. A blinded scoring system was employed to assess the colitis. The DAI scorer blinded to the group information and animal ID was responsible for the stool consistency and bleeding evaluations. DAI scoring standards will be followed as below. A study was conducted as in set forth in Example 6. […] Mice in the vehicle group were given only 200 μL distilled water by gavage.

[2] = Stability of indirubin prodrugs in simulated fluids (FaSSIF, FaSSGF), 24 h at 37° C., UPLC-MS; format: physicochemical
Method: (§1) 10.41 g fasted state simulated intestinal fluid (FaSSIF) buffer concentrate was dissolved in 240.3 g deionized water and 560 mg FaSSIF powder added. The mixture was stirred until complete dissolution observed. The test compound (approx. 1-3 mg) was placed in 5.00 mL of FaSSIF solution. Samples of the solution with the test compound were taken after 24 hours in at 37° C. (oven-controlled temperature).
as §1, with “36.78” for “10.41”, “gastric” for “intestinal”, “(FaSSGF)” for “(FaSSIF)”, “961.9” for “240.3”, “60” for “560”, “FaSSGF” for “FaSSIF”
UPLC-MS analysis of the samples taken at 24 hours was carried out on a Waters Acquity UPLC system consisting of an Acquity I-Class Sample Manager-FL, Acquity I-Class Binary Solvent Manager and an Acquity UPLC Column Manager. UV detection was afforded using an Acquity UPLC PDA detector (scanning from 210 to 400 nm), whilst mass detection was achieved using an Acquity QDa detector (mass scanning from 100-1250 Da; positive and negative modes simultaneously), and ELS detection was achieved using an Acquity UPLC ELS Detector. A Waters Acquity UPLC BEH C18 column (2.1 Å˜50 mm, […]) was used to separate the analytes. Samples were prepared by dissolution (with or without sonication) into 1 mL of 50% (v/v) MeCN in water. The resulting solutions were then filtered through a […] syringe filter before submitting for analysis. All of the solvents, including formic acid and 36% ammonia solution, were purchased as the HPLC grade.

[3] = Indirubin levels in plasma, colon and lung of colitis mice, LC-MS/MS (Example 8); format: in vivo; settings: six hours after the last oral dose, indirubin molar equivalent of 15 mg/kg twice daily
Method: Five animals from each group in Example 7 were euthanized six hours after the last oral dose. At this time plasma, lung and colon was harvested. Colon was washed three times in cold phosphate buffered saline (PBS) to remove colon contents.
Indirubin was detected utilizing LC-MS/MS.
To prepare samples, an aliquot of 20 μL unknown sample, calibration standard, quality control, single blank and double blank samples were added to the 96-well plate. Samples (except the double blank) for plasma were quenched with 100 μL internal standard respectively (double blank sample was quenched with 100 μL acetonitrile (ACN)), samples (except the double blank) for liver, lung and colon were quenched with 80 μL internal standard respectively (double blank sample was quenched with 80 μL ACN), and then the mixture was vortex-mixed for 5 minutes at 800 rpm and centrifuged for 15 minutes at 3220 g (4000 rpm), at 4° C. 50 μL supernatant was transfer to another clean 96-well plate and the supernatant were directly injected for LC-MS/MS analysis.

[4] = Indirubin solubility in biorelevant media (FaSSIF, FaSSGF), HPLC; format: physicochemical
Method: Biorelevant media was prepared as per the supplier's (Biorelevant) method, using FaSSIF/FeSSIF/FaSSGF powders. In brief, FaSSGF media was prepared using 0.06 g/L FaSSIF/FeSSIF/FaSSGF powder in 2 g/L NaCl solution, pH adjusted to 1.6 with 1N HCl. FaSSIF media was prepared with 2.24 g/L FaSSIF/FeSSIF/FaSSGF powder in sodium phosphate buffer, pH adjusted to 6.5 with 1N NaOH. (Sodium phosphate buffer prepared as a 0.42 g/L NaOH, 3.95 g/L NaH2PO4·H2O, 6.19 g/L NaCl solution).
Solubility assessments were performed as follows. An individual flask was prepared for each media and time point. Flasks were placed in a shaking water bath kept at 37° C. Flasks were removed from the bath at specified time points of 1 hour, 4 hours and 24 hours, allowed to cool, and an aliquot taken and filtered.

| SMILES | Fraction (percent) of indirubin ([2]; FaSSGF 37° C. 24 h) [%] | Fraction (percent) of starting material (SM) ([2]; FaSSGF 37° C. 24 h) [%] | Fraction (percent) of indirubin ([2]; FaSSIF 37° C. 24 h) [%] | Fraction (percent) of starting material (SM) ([2]; FaSSIF 37° C. 24 h) [%] | further results |
| --- | --- | --- | --- | --- | --- |
| O=C1/C(=C2/C(=O)N(CN3CCCC3)c3ccccc32)Nc2ccccc21 [Compound 41] | – | – | – | – | Efficacy (percent of initial body weight, DAI score) [1]: more effective than an equimolar amount of indirubin |
| O=C(O)CCC(=O)OCN1C(=O)/C(=C2\Nc3ccccc3C2=O)c2ccccc21 | 0 | 100 | 0 | 100 | – |
| CCN(CC)CN1C(=O)/C(=C2\Nc3ccccc3C2=O)c2ccccc21 [drawing 221] | 100 | 0 | 100 | 0 | – |
| C=CCOC(=O)N1C(=O)/C(=C2\Nc3ccccc3C2=O)c2ccccc21 | 0 | 100 | 2 | 88 | – |
| O=C1/C(=C2/C(=O)N(C(=O)CCCN3CCOCC3)c3ccccc32)Nc2ccccc21 | 0 | 100 | 0 | 100 | – |
| O=C1/C(=C2/C(=O)N(CO)c3ccccc32)Nc2ccccc21 [drawing 219] | 13 | 87 | 100 | 0 | – |
| O=C1Nc2ccccc2/C1=C1/Nc2ccccc2C1=O [synthetic indirubin] | – | – | – | – | Colon length versus vehicle [1]: vehicle only have a shorter colon than those treated with synthetic indirubin; Mean Indirubin Level, Colon [3]: 2.43 ng/g; Mean Indirubin Level, Lung [3]: 2.12 ng/g; Mean Indirubin Level, Plasma [3]: 0.05 ng/mL; % indirubin recovered in solution ([4]; FaSSIF 24 hr, 37° C., 5 μg/mL indirubin or molar equivalent): 0.1% |
| CN1CCN(CN2C(=O)/C(=C3\Nc4ccccc4C3=O)c3ccccc32)CC1 [Compound 10] | – | – | – | – | Solubility in the simulated fluids ([4]; FaSSGF and FaSSIF): soluble in the simulated fluids |
| O=C1/C(=C2/C(=O)N(COc3ccccc3)c3ccccc32)Nc2ccccc21 | 0 | 100 | 0 | 100 | – |
| O=C1Nc2ccccc2/C1=C1/Nc2ccccc2/C1=N\O | 0 | 100 | 0 | 100 | – |
| CCCCCCCCCCC(=O)N1C(=O)/C(=C2\Nc3ccccc3C2=O)c2ccccc21 | 0 | 100 | 0 | 100 | – |
